Experiment: xn = mol fraction of the nth substance listed
Settings: 101 kPa

CC[NH+](C)CC.CS(=O)(=O)[O-] + O
viscosity [mPa·s]
Settings	x2 = 0.372	x2 = 0.449	x2 = 0.507	x2 = 0.624	x2 = 0.707
293.1 K	65.26	49.94	41.92	27.93	–
313.1 K	–	21.55	18.69	13.36	10.09
333.1 K	–	11.37	–	7.34	5.72
353.1 K	8.2	–	6.08	–	3.6

CC(=O)[O-].CC[n+]1ccn(C)c1 + O
viscosity [mPa·s]
Settings	x2 = 0.347	x2 = 0.517	x2 = 0.578	x2 = 0.627	x2 = 0.705
293.1 K	93.7	–	–	42.8	–
313.1 K	35.2	24.4	21.4	18.2	14
333.1 K	16.9	–	–	9.39	7.36
353.1 K	9.51	7.19	6.46	5.63	4.38
